Target: recombinant human CETP protein (Homo sapiens (Human), UniProt P11597)
Assay: Test of CETP inhibition activity (in vitro, buffer-based)
Assay type: biochemical
Details: reconstituted HDL with [14C]-labeled cholesteryl ester, acceptor lipoprotein, 37° C.
Procedure, shortened: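 Reconstituted HDL carrying [14C]-cholesteryl ester served as donor and plasma IDL/LDL (density 1.019–1.063) as acceptor, with 4.5 ng recombinant CETP in PBS pH 7.4. Compound (DMSO stocks 0.15–500 μM) was preincubated with CETP and acceptor for 60 min at 37 °C, then reacted with donor for 60 min. HDL-fraction radioactivity after MgCl2/dextran sulfate precipitation gave % inhibition and IC50.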

Chain of recombinant human CETP protein (P11597 18-493): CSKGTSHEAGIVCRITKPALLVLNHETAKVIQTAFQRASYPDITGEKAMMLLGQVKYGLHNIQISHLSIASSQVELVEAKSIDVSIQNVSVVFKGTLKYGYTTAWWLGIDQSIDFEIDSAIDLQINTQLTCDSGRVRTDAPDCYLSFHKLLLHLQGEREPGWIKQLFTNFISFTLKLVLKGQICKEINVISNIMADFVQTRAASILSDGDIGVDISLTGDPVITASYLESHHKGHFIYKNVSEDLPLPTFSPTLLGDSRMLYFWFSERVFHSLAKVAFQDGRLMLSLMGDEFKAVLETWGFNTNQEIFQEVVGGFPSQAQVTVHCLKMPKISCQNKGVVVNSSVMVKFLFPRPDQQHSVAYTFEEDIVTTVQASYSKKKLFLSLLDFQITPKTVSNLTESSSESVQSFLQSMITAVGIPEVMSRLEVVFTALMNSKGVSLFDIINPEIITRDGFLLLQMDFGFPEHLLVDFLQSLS

Row | SMILES | IC50
1 | CC(C)(O)COc1cnc(N2CCC(c3nc4c(c(C5CCC(F)(F)CC5)c3[C@@H](F)c3ccc(C(F)(F)F)cc3)[C@@H](O)CC(C)(C)C4)CC2)nc1 (stereo in doubt) [Example 44, 4-(4,4-Difluorocyclohexyl)-3-{fluoro[4-(trifluoromethyl)phenyl]methyl}-2-{1-[5-(2-hydroxy-2-methylpropoxy)pyrimidin-2-yl]piperidin-4-yl}-7,7-dimethyl-5,6,7,8-tetrahydroquinolin-5-ol] | 0.021 µM
2 | CC1(C)Cc2nc(C3CCN(c4ncc(OC[C@@H](O)CO)cn4)CC3)c([C@@H](F)c3ccc(C(F)(F)F)cc3)c(C3CCC(F)(F)CC3)c2[C@@H](O)C1 [Example 39, (−)-4-(4,4-Difluorocyclohexyl)-2-[1-(5-{[(2S)-2,3-dihydroxypropyl]oxy}pyrimidin-2-yl)piperidin-4-yl]-3-{fluoro[4-(trifluoromethyl)phenyl]methyl}-7,7-dimethyl-5,6,7,8-tetrahydroquinolin-5-ol] | 0.032 µM
3 | CC1(C)Cc2nc(C3CCN(c4ncc(OCCCO)cn4)CC3)c([C@@H](F)c3ccc(C(F)(F)F)cc3)c(C3CCC(F)(F)CC3)c2[C@@H](O)C1 [Example 46, (−)-4-(4,4-Difluorocyclohexyl)-3-{fluoro[4-(trifluoromethyl)phenyl]methyl}-2-{1-[5-(3-hydroxypropoxy)pyrimidin-2-yl]piperidin-4-yl}-7,7-dimethyl-5,6,7,8-tetrahydroquinolin-5-ol] | 0.016 µM
4 | CC1(C)Cc2nc(C3CCN(c4ncc(-c5cccc(C(=O)O)c5)cn4)CC3)c([C@@H](F)c3ccc(C(F)(F)F)cc3)c(C3CCC(F)(F)CC3)c2[C@@H](O)C1 [Example 55, (−)-2-{1-[5-(3-Carboxyphenyl)pyrimidin-2-yl]piperidin-4-yl}-4-(4,4-difluorocyclohexyl)-3-{fluoro[4-(trifluoromethyl)phenyl]methyl}-7,7-dimethyl-5,6,7,8-tetrahydroquinolin-5-ol] | 0.059 µM

Next, values leading:

Row | IC50 | SMILES
5 | 0.028 µM | CN(CCO)c1cnc(N2CCC(c3nc4c(c(C5CCC(F)(F)CC5)c3[C@@H](F)c3ccc(C(F)(F)F)cc3)[C@@H](O)CC(C)(C)C4)CC2)nc1 (single isomer, unassigned) [Example 56, 4-(4,4-Difluorocyclohexyl)-3-{fluoro[4-(trifluoromethyl)phenyl]methyl}-2-(1-{5-[(2-hydroxyethyl)(methyl)amino]pyrimidin-2-yl}piperidin-4-yl)-7,7-dimethyl-5,6,7,8-tetrahydroquinolin-5-ol]
6 | 0.033 µM | CC1(C)Cc2nc(C3CCN(c4ncc(N5CC[C@H](O)C5)cn4)CC3)c([C@@H](F)c3ccc(C(F)(F)F)cc3)c(C3CCC(F)(F)CC3)c2[C@@H](O)C1 (single isomer, unassigned) [Example 57]
7 | 0.255 µM | CC1(C)Cc2nc(C3CCN(c4ncc(CO)cn4)CC3)c([C@@H](F)c3ccc(C(F)(F)F)cc3)c(C3CCC(F)(F)CC3)c2[C@@H](O)C1 [Example 20, (−)-4-(4,4-Difluorocyclohexyl)-3-{fluoro[4-(trifluoromethyl)phenyl]methyl}-2-[1-[5-(hydroxymethyl)pyrimidin-2-yl]piperidin-4-yl]-7,7-dimethyl-5,6,7,8-tetrahydroquinolin-5-ol]
8 | 0.025 µM | C[C@H](O)COc1cnc(N2CCC(c3nc4c(c(C5CCC(F)(F)CC5)c3[C@@H](F)c3ccc(C(F)(F)F)cc3)[C@@H](O)CC(C)(C)C4)CC2)nc1 [Example 37, (−)-4-(4,4-Difluorocyclohexyl)-3-{fluoro[4-(trifluoromethyl)phenyl]methyl}-2-[1-(5-{[(2S)-2-hydroxypropyl]oxy}pyrimidin-2-yl)piperidin-4-yl]-7,7-dimethyl-5,6,7,8-tetrahydroquinolin-5-ol]

From US9187450B2, “Substituted pyridine compound” (Daiichi Sankyo Company, Limited, priority 2010, dated 2015)
